≈ marks a conversion by molar mass, not a printed value.
Columns and labels:
Klebsiella oxytoca = test: microbe, parasite or virus in culture
Burkholderia cepacia = test: microbe, parasite or virus in culture
Proteus mirabilis = test: microbe, parasite or virus in culture
Escherichia coli [1] = test: microbe, parasite or virus in culture
[2] = system: Stenotrophomonas maltophilia; test: microbe, parasite or virus in culture
Klebsiella aerogenes = test: microbe, parasite or virus in culture
Klebsiella pneumoniae [3] = test: microbe, parasite or virus in culture
Serratia marcescens = test: microbe, parasite or virus in culture
Morganella morganii = test: microbe, parasite or virus in culture
Citrobacter freundii = test: microbe, parasite or virus in culture
Moraxella catarrhalis = test: microbe, parasite or virus in culture
Enterobacter cloacae = test: microbe, parasite or virus in culture
Pseudomonas aeruginosa [4] = test: microbe, parasite or virus in culture
Haemophilus influenzae = test: microbe, parasite or virus in culture
Acinetobacter baumannii = test: microbe, parasite or virus in culture
Klebsiella pneumoniae [5] = test: microbe, parasite or virus in culture; settings: T6474
Pseudomonas aeruginosa [6] = test: microbe, parasite or virus in culture; settings: ATCC 27853
Escherichia coli [7] = test: microbe, parasite or virus in culture; settings: ATCC 25922
physchem [8] = settings: buffer, pH 4
in vitro [9] = settings: rat, hepatocytes
physchem [10] = settings: buffer, pH 7
physchem [11] = settings: buffer, pH 9
in vitro [12] = settings: rat, liver microsomes
physchem [13] = settings: n-octanol/phosphate buffer, pH 7.4
in vivo [14] = settings: mouse, sc, 150 mg/kg
in vitro [15] = settings: human, hepatocytes
in vitro [16] = settings: human, liver microsomes
[17] = system: T1, UDP-3-O-acyl-N-acetylglucosamine deacetylase (Pseudomonas aeruginosa (strain ATCC 15692 / PAO1 / 1C / PRS 101 / LMG12228)), P47205 [C40S]; settings: 25 uM
T1 sequence (whole entry): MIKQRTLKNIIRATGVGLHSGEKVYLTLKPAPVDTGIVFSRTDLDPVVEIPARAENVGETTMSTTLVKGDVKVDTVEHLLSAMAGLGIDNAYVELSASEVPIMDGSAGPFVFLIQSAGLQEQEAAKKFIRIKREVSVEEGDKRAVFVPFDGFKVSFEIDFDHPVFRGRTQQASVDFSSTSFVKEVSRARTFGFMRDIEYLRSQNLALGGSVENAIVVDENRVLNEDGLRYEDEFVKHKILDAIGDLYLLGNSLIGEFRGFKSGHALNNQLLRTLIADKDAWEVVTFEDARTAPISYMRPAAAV

in vivo [18] = settings: Wistar, rat, iv, 10 mg/kg
in vitro [19] = settings: rat, plasma
physchem [20] = test: physchem
[21] = system: T2, UDP-3-O-acyl-N-acetylglucosamine deacetylase (Escherichia coli K-12), P0A725 [C125S]; settings: 25 uM
T2 sequence (whole entry): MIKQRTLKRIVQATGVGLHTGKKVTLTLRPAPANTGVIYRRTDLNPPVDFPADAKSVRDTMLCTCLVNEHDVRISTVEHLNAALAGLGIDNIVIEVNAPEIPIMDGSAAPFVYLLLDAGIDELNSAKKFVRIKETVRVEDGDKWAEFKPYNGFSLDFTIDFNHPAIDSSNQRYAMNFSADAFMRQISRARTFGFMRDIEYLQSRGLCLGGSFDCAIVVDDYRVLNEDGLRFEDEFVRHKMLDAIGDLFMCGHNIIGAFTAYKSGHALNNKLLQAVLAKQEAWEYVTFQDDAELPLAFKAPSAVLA

SMILES	MIC (Klebsiella pneumoniae [5]) [µg/mL]	MIC (Pseudomonas aeruginosa [6]) [µg/mL]	MIC (Escherichia coli [7]) [µg/mL]	solubility at 24 h (physchem [8]) [µg/mL]	hepatocyte CLint at 1 µM (in vitro [9]) [µL/min/1e6 cells]	solubility at 24 h (physchem [10]) [µg/mL]	solubility at 24 h (physchem [11]) [µg/mL]	microsomal CLint at 1 µM (in vitro [12]) [µL/min/mg]	logD (physchem [13])	also measured
CN(C)c1cc(NC(=O)CNC(C)(C)C)c(O)c2c1C[C@H]1C[C@H]3[C@H](N(C)C)C(O)=C(C(N)=O)C(=O)[C@@]3(O)C(O)=C1C2=O [TIGECYCLINE]										MIC90 (Klebsiella oxytoca): 0.5 µg/mL (≈ 0.854 µM); MIC90 (Burkholderia cepacia): > 16 µg/mL; MIC90 (Proteus mirabilis): 4 µg/mL (≈ 6.83 µM); MIC90 (Escherichia coli [1]): 1 µg/mL (≈ 1.71 µM); MIC90 [2]: 4 µg/mL (≈ 6.83 µM); MIC90 (Klebsiella aerogenes): 1 µg/mL (≈ 1.71 µM); MIC90 (Klebsiella pneumoniae [3]): 4 µg/mL (≈ 6.83 µM); MIC90 (Serratia marcescens): 2 µg/mL (≈ 3.41 µM); MIC90 (Morganella morganii): 8 µg/mL (≈ 13.7 µM); MIC90 (Citrobacter freundii): 1 µg/mL (≈ 1.71 µM); MIC90 (Moraxella catarrhalis): 0.5 µg/mL (≈ 0.854 µM); MIC90 (Enterobacter cloacae): 4 µg/mL (≈ 6.83 µM); MIC90 (Pseudomonas aeruginosa [4]): > 16 µg/mL; MIC90 (Haemophilus influenzae): 0.25 µg/mL (≈ 0.427 µM); MIC90 (Acinetobacter baumannii): 16 µg/mL (≈ 27.3 µM)
C[C@@](CCN1Cc2cc(C#CC#C[C@@H]3C[C@H]3CO)cn2C1=O)(C(=O)NO)S(C)(=O)=O	0.25 (≈ 0.577 µM)	0.5 (≈ 1.15 µM)	0.12 (≈ 0.277 µM)	600 (≈ 1380 µM)	13.4	602 (≈ 1390 µM)	552 (≈ 1270 µM)	< 10		
C[C@@](CCN1Cc2cc(C#CC#C[C@H]3C[C@]3(F)CO)cn2C1=O)(C(=O)NO)S(C)(=O)=O	0.5 (≈ 1.11 µM)	0.5 (≈ 1.11 µM)	0.25 (≈ 0.554 µM)	354 (≈ 784 µM)	13	613 (≈ 1360 µM)	> 760	16	0.9	
C[C@@H](O)[C@H]1C(=O)N2C(C(=O)O)=C(SCCNC=N)C[C@H]12 [IMIPENEM ANHYDROUS]										MIC90 (Klebsiella oxytoca): 0.5 µg/mL (≈ 1.67 µM); MIC90 (Burkholderia cepacia): > 16 µg/mL; MIC90 (Proteus mirabilis): 4 µg/mL (≈ 13.4 µM); MIC90 (Escherichia coli [1]): 0.25 µg/mL (≈ 0.835 µM); MIC90 [2]: > 16 µg/mL; MIC90 (Klebsiella aerogenes): 2 µg/mL (≈ 6.68 µM); MIC90 (Klebsiella pneumoniae [3]): > 16 µg/mL; MIC90 (Serratia marcescens): 1 µg/mL (≈ 3.34 µM); MIC90 (Morganella morganii): 16 µg/mL (≈ 53.4 µM); MIC90 (Citrobacter freundii): 1 µg/mL (≈ 3.34 µM); MIC90 (Moraxella catarrhalis): 0.06 µg/mL (≈ 0.2 µM); MIC90 (Enterobacter cloacae): 1 µg/mL (≈ 3.34 µM); MIC90 (Pseudomonas aeruginosa [4]): > 16 µg/mL; MIC90 (Haemophilus influenzae): 0.5 µg/mL (≈ 1.67 µM); MIC90 (Acinetobacter baumannii): > 16 µg/mL
C[C@@](CCN1Cc2cc(C#CC#C[C@@H]3C[C@H]3[C@H](O)CO)cn2C1=O)(C(=O)NO)S(C)(=O)=O	1 (≈ 2.16 µM)	0.5 (≈ 1.08 µM)	0.25 (≈ 0.539 µM)	618 (≈ 1330 µM)	10	> 780	> 780	< 10	0.5	
C[C@@](CCN1Cc2cc(C#CC#CC3(CO)CC3)cn2C1=O)(C(=O)NO)S(C)(=O)=O	1 (≈ 2.31 µM)	0.5 (≈ 1.15 µM)	0.25 (≈ 0.577 µM)	149 (≈ 344 µM)	8.5	384 (≈ 886 µM)	553 (≈ 1280 µM)	24	0.9	AUC(0-t) at 24 h (in vivo [14]): 89500 ng·h/mL
O=C(O)c1cn(C2CC2)c2cc(N3CCNCC3)c(F)cc2c1=O [CIPROFLOXACIN]										MIC90 (Klebsiella oxytoca): ≤ 0.016 µg/mL; MIC90 (Burkholderia cepacia): 8 µg/mL (≈ 24.1 µM); MIC90 (Proteus mirabilis): 0.125 µg/mL (≈ 0.377 µM); MIC90 (Escherichia coli [1]): > 8 µg/mL; MIC90 [2]: 8 µg/mL (≈ 24.1 µM); MIC90 (Klebsiella aerogenes): 0.03 µg/mL (≈ 0.0905 µM); MIC90 (Klebsiella pneumoniae [3]): > 8 µg/mL; MIC90 (Serratia marcescens): 0.25 µg/mL (≈ 0.754 µM); MIC90 (Morganella morganii): ≤ 0.016 µg/mL; MIC90 (Citrobacter freundii): 0.125 µg/mL (≈ 0.377 µM); MIC90 (Moraxella catarrhalis): 1 µg/mL (≈ 3.02 µM); MIC90 (Pseudomonas aeruginosa [4]): > 8 µg/mL; MIC90 (Haemophilus influenzae): ≤ 0.016 µg/mL; MIC90 (Acinetobacter baumannii): > 8 µg/mL
C[C@]1(CO)C[C@@H]1C#CC#Cc1cc2n(c1)C(=O)N(CC[C@](C)(C(=O)NO)S(C)(=O)=O)C2	0.25 (≈ 0.559 µM)	0.25 (≈ 0.559 µM)	0.25 (≈ 0.559 µM)	344 (≈ 769 µM)	55	401 (≈ 896 µM)	506 (≈ 1130 µM)	< 10	1.6	
C[C@@](CCN1Cc2cc(C#CC#CC3(N)CC3)cn2C1=O)(C(=O)NO)S(C)(=O)=O	0.25 (≈ 0.597 µM)	0.5 (≈ 1.19 µM)	0.25 (≈ 0.597 µM)		17			14	0.7	hepatocyte CLint at 1 µM (in vitro [15]): < 2 µL/min/1e6 cells; microsomal CLint at 1 µM (in vitro [16]): < 10 µL/min/mg; AUC(0-t) at 24 h (in vivo [14]): 44700 ng·h/mL; deltaTm [17]: 11.6 K; clearance at 24 h (in vivo [18]): 29 mL/min/kg; fraction unbound at 1 µM (in vitro [19]): 0.111; pKa (physchem [20]): 6.5; deltaTm [21]: 10 K
CC(C)(O)CN1CC(C#CC#Cc2cc3n(c2)C(=O)N(CC[C@](C)(C(=O)NO)S(C)(=O)=O)C3)C1	1 (≈ 2.04 µM)	0.5 (≈ 1.02 µM)	0.5 (≈ 1.02 µM)	> 830		> 830	> 830		0.7	AUC(0-t) at 24 h (in vivo [14]): 47300 ng·h/mL; deltaTm [17]: 12.1 K; pKa (physchem [20]): 7.8; deltaTm [21]: 10.3 K
C[C@@](CCN1Cc2cc(C#CC#CCN3CCC(O)CC3)cn2C1=O)(C(=O)NO)S(C)(=O)=O	2 (≈ 4.2 µM)	1 (≈ 2.1 µM)	1 (≈ 2.1 µM)	> 810		> 810	> 810		0.4	deltaTm [17]: 11.5 K; pKa (physchem [20]): 6.5; deltaTm [21]: 9.5 K

Source: ChEMBL document CHEMBL4321867, “Optimization of LpxC Inhibitor Lead Compounds Focusing on Efficacy and Formulation for High Dose Intravenous Administration” (J Med Chem, 2020)
